Results published in the supplement of paper PMC10307832.

Legend:
Assay in all cases: relative viability (nuclei count vs DMSO), 5 days (fraction); higher = more cells survive
XMD14-99 + OSI-027 = compound: CN1CCN(CC1)C2=CC(=C(C=C2)NC3=NC(=C(S3)C(=O)C4=C(C=CC=C4Cl)Cl)N)OC [XMD14-99] + COc1cccc2cc(-c3nc([C@H]4CC[C@H](C(=O)O)CC4)n4ncnc(N)c34)[nH]c12 [OSI-027] (partner 0.5 µM)
Method in brief: (§1)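 Relative viability divides the nuclei count in treated wells by that in vehicle wells. Lung cancer cell lines were seeded in 1536-well plates, dosed by pin tool the next day, and fixed and stained after 5 days in one step with final 0.05% Triton X-100, 1% formaldehyde and 1 ug/ml Hoechst. Dosing was a single drug or a fixed anchor-drug dose plus five library-drug doses (not always all listed) in √10 steps, and values are medians of duplicate plates imaged at 4×.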

XMD14-99 + Phenformin = compound: CN1CCN(CC1)C2=CC(=C(C=C2)NC3=NC(=C(S3)C(=O)C4=C(C=CC=C4Cl)Cl)N)OC [XMD14-99] + N=C(N)NC(=N)NCCc1ccccc1 [Phenformin] (partner 250 µM)
Method in brief: as §1

AZD1208 + Luminespib = compound: N[C@@H]1CCCN(c2c(/C=C3\SC(=O)NC3=O)cccc2-c2ccccc2)C1 [AZD1208] + CCNC(=O)c1noc(-c2cc(C(C)C)c(O)cc2O)c1-c1ccc(CN2CCOCC2)cc1 [Luminespib] (partner 0.01 µM)
Method in brief: as §1

XMD14-99 + Linsitinib = compound: CN1CCN(CC1)C2=CC(=C(C=C2)NC3=NC(=C(S3)C(=O)C4=C(C=CC=C4Cl)Cl)N)OC [XMD14-99] + C[C@]1(O)C[C@@H](c2nc(-c3ccc4ccc(-c5ccccc5)nc4c3)c3c(N)nccn32)C1 [Linsitinib] (partner 1 µM)
Method in brief: as §1

Cell Line	relative viability (XMD14-99 + OSI-027; first compound 0.08 µM)	relative viability (XMD14-99 + OSI-027; first compound 0.8 µM)	relative viability (XMD14-99 + OSI-027; first compound 2.53 µM)	relative viability (XMD14-99 + OSI-027; first compound 8 µM)	relative viability (XMD14-99 + Phenformin; first compound 0.08 µM)	relative viability (XMD14-99 + Phenformin; first compound 0.8 µM)	relative viability (XMD14-99 + Phenformin; first compound 2.53 µM)	relative viability (XMD14-99 + Phenformin; first compound 8 µM)	relative viability (AZD1208 + Luminespib; first compound 0.08 µM)	relative viability (AZD1208 + Luminespib; first compound 0.253 µM)	relative viability (AZD1208 + Luminespib; first compound 0.8 µM)	relative viability (AZD1208 + Luminespib; first compound 2.53 µM)	relative viability (AZD1208 + Luminespib; first compound 8 µM)	relative viability (XMD14-99 + Linsitinib; first compound 0.08 µM)	relative viability (XMD14-99 + Linsitinib; first compound 0.8 µM)	relative viability (XMD14-99 + Linsitinib; first compound 2.53 µM)	relative viability (XMD14-99 + Linsitinib; first compound 8 µM)
ChaGo-K-1	0.554	0.658	0.612	0.472	0.474	0.51	0.494	0.388	0.676	0.655	0.596	0.528	0.392				
Calu-6														0.918	0.918	0.883	0.732
HCC-366	0.855	1.05	0.82	0.608	0.647	0.636	0.564	0.554						0.619	0.641	0.781	0.602
NCI-H2342	0.594	0.674	0.752	0.548	0.675	0.782	0.68	0.513	0.686	0.713	0.653	0.672	0.533				
EBC-1														0.885	0.77	0.762	0.702
NCI-H1299														0.95	0.905	0.908	0.846
NCI-H522	0.742	0.742	0.683	0.72	0.658	0.616	0.702	0.692	1.03	1.15	0.841	0.935	0.973				
IA-LM														0.648	0.308	0.286	0.281
NCI-H2170	0.709	0.772	0.65	0.621	0.393	0.388	0.342	0.3	0.65	0.656	0.632	0.512	0.321				
